Results published in patent US20220142967A1, “Methods and Compositions for the Treatment of Multiple Sclerosis” (SYMBIONYX PHARMACEUTICALS INC, priority 2018, published 2022).
Counter-ions that a name gives are not always drawn.

Assays:
[1] = tested on: cytokine-treated neonatal human epidermal keratinocytes (HEK); assay: qPCR of pro-inflammatory and antioxidant genes in cytokine-treated keratinocytes; type: cell-based; conditions: 4 μg/ml, 24 h, IL-17A/IL-22/TNFα treated HEK
Protocol: A separate assay study was conducted on cytokine-treated neonatal human epidermal keratinocytes (HEK) looking at the expression impact of IDMF and dimethyfumarate (DMF) on key pro-inflammatory and antioxidant genes. In preparation for the assay, HEK (p2; Cell Applications, San Diego) were cultured at optimal conditions [keratinocyte growth medium supplemented with KGM-Gold Bullet kit (Lonza, Switzerland)] to form a segmented monolayer. A cytokine mix of IL-17A/IL-22/TNFα (100 ng/ml; 100 ng/ml; 10 ng/ml; Antigenix, Huntington Station, N.Y.) was added and the cell cultures incubated for 24 h. […] Thereafter, each test material was added to the cultures at 4 μg/ml (final concentration) in triplicate and the cultures incubated for a further 24 hours.
After the 24-hour incubation with the test materials, the cells were observed through a Nikon Eclipse TS100 inverted microscope. No gross morphological changes were recorded. RNA was then extracted and purified with NucleoSpin RNA II kit from Machery-Nagel, Bethlehem, Pa., using QiaCube robotic station (Qiagen, Valencia, Calif.). Purified total RNA was assessed at 260 nm and 280 nm with NanoDrop Lite (Thermo Fisher Scientific, Waltham, Mass.), pure samples with A260A/280 and A260/A230 ratios of >1.7 were standardized and the expression of the genes of interest (Table 3) was measured by real-time quantitative PCR with BioRad iCycler iQ Detection System using custom-made PCR arrays (Qiagen, Valencia, Calif.; part #24caph12190), 5×All-In-One 1st Strand cDNA Synthesis Mix (Bioland Scientific, Paramount, Calif.) and 2×qPCR Master Mix (Bioland). Efficiency ΔΔCt method was used for quantification of results, after the normalization of gene expression to GAPDH/PPIA housekeeping gene. Genes were considered differentially expressed if the level of expression was reasonably high (less than 30 cycles to detect) and the modulation was >1.7. […] Even assuming IDMF fully metabolizes to MMF, there is still considerably more MMF from DMF as opposed to the same amount, based on weight, of IDMF.

[2] = target: T1, carboxylesterase 2 (CES2) (Homo sapiens, UniProt O00748); assay: Carboxylesterase hydrolysis IDMF v DMF; type: in vitro ADME; conditions: for remaining parent compound: 1 mg/ml CES2, 37° C., pH 7.4
T1 sequence (O00748 27-559): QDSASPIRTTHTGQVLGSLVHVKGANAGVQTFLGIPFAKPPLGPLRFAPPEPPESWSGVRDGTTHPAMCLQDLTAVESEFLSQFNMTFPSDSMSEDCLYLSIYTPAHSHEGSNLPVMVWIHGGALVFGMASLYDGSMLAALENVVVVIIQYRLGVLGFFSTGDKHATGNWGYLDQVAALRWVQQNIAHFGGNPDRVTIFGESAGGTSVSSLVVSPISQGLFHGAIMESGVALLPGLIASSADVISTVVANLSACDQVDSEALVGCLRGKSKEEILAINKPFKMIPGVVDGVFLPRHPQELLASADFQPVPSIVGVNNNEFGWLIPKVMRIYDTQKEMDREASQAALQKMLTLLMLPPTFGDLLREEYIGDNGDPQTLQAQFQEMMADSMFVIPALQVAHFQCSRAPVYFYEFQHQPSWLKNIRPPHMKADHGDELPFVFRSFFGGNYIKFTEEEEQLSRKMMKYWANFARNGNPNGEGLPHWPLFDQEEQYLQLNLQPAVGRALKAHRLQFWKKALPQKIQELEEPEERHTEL
Protocol: IDMF and DMF were subjected to carboxylesterase hydrolysis. […] 1 mg/ml carboxylesterase 2 (CES2) was added to each solution and the solutions incubated at 37° C. for the time periods set forth in Table 5. […] Isosorbide was quantified using CAD. Mobile phase used for the study: 0.1% Formic acid in water; B: Methanol. Column: Luna C18 4.6 mm×100 mm, 5 u (Phenomenex). Flow rate: 1.0 ml/min.

[3] = tested on: human fetal astrocytes derived from cerebral cortex; assay: Comparative RT-PCR evaluation of selected genes in astrocytes; type: cell-based
Protocol: Experiments were performed using human fetal astrocytes derived from cerebral cortex (cat. no. 882A-05f; Cell Applications, Sant Diego, Calif.). Cells were grown to subconfluence in human astrocyte growth medium (cat. no. 820-500, Cell Applications). […] Test materials were added to subconfluent cultures at a concentration of 2.5 μM and cells were incubated for 24 hours.
RNA was extracted following the incubation period using the RNAeasy Mini Plus kit (Qiagen, Hilden, Germany) and robotic Qiacube Connect station (Qiagen). Samples were shipped on dry ice to the Thermo Fisher Microarray Research Services Laboratory (Santa Clara, Calif.) for transcriptome analysis. RNA quality analysis was performed upon sample receipt using the NanoDrop Lite (Thermo Fisher Scientific, Waltham, Mass.). All samples had 260/280 nm absorbance ratios higher than 1.90, consistent with high-purity RNA.
The expression of selected genes was further evaluated using RT-PCR. cDNA was prepared using the AzuraQuant cDNA kit (Azura Genomics, Raynham, Mass.) and PCR reactions were performed using the BioRad iCycler iQ Detection System with Fast Green qPCR Master Mix—Fluor (Azura Genomics). PCR primers were purchased from Realtimeprimers (Elkins Park, Pa.). The ΔΔCt method [Livak K. J. and Schmittgen T. D. Analysis of relative gene expression data using real-time quantitative PCR and the 2(−Delta Delta C(T)) Method. Methods (San Diego, Calif.) 25(4):402-408, 2001]. was used to estimate fold changes with cycle threshold values normalized based upon the expression of glyceraldehyde-3-phosphate dehydrogenase (GAPDH).

[4] = target: T1, carboxylesterase 2 (CES2); assay: Carboxylesterase hydrolysis IDMF v DRF; type: in vitro ADME; conditions: 20 μl of 1 mg/ml CES2, 37° C., pH 7.4
Protocol: 20 μl of 1 mg/ml carboxylesterase 2 (CES2) was added to each solution and the solutions incubated at 37° C. for the time periods set forth in Table 5. […] Although tolerable for normal patients, HES is undesirable and detrimental for those individuals have kidney and/or liver issues

## COC(=O)/C=C/C(=O)O[C@H]1CO[C@H]2[C@@H]1OC[C@H]2OC(=O)/C=C/C(=O)OC [IDMF, isosorbide di-(methyl fumarate)]
[1]
  CXCL3 fold change: −1.1 fold
  IL8 fold change: 1.4 fold
  NFE2L2 fold change: 2.6 fold
  PTGS2 fold change: 1.2 fold
[2]; 0 minutes
  remaining parent compound: 1.027 mM
[2]; 15 minutes
  remaining parent compound: 0.072 mM
[2]; CES2, 37° C.
  time by which essentially all is hydrolyzed: ≤ 15 min
[3]; FIG. 11(B)
  OSGIN1 expression: enhancing expression
[3]; FIGS. 11(C) through 11(H)
  expression of key MS-associated genes (IL-6, ICAM1, MALT1, TNFAIP3, IRF1, CXCL8): marked suppression
[4]; 0 minutes
  remaining parent compound: 1.086 mM
[4]; 15 minutes
  remaining parent compound: 0.113 mM
